Experimental data: US9156845B2, “4-(substituted amino)-7H-pyrrolo[2,3-d] pyrimidines as LRRK2 inhibitors” (Pfizer Inc., priority 2012, dated 2015)

Legend:
[1] = target: mutant G2019S LRRK2 (Homo sapiens (Human), UniProt Q5S007, G2019S); test: LRRK2 Lantha Screen kinase assay, mutant enzyme; format: biochemical; conditions: geometric mean of 2-5 determinations unless otherwise indicated (a: >=6 determinations; b: single determination)
Description: LRRK2 kinase activity was measured using Lantha Screen technology from Invitrogen. GST-tagged truncated LRRK2 from Invitrogen (Cat # PV4874) was incubated with a fluorescein-labeled peptide substrate based upon ezrin/radixin/moesin (ERM), also known as LRRKtide (Invitrogen cat #PR8976A), in the presence of a dose response of compound. Upon completion, the assay was stopped and detected with a terbium labeled anti-phospho-ERM antibody (Invitrogen, cat #PR8975A). […] Aliquots (3.5 μL) of the 100% DMSO dose response were mixed with 46.5 μL water then 1 μL of this mixture was added to the 3 μL substrate mix in the 384-well plate. The kinase reaction was started with 3 μL of a working solution of LRRK2 enzyme at a concentration of 4 μg/mL. […] The reaction was allowed to progress at room temperature for two hours and then stopped with the addition of 7 μL of detection buffer (20 mM Tris pH 7.6, 0.01% NP-40, 0.02% NaN3, 6 mM EDTA with 2 nM terbium labeled anti-phospho-ERM).
All final concentrations of substrate ATP and enzyme were the same.

[2] = target: GST-tagged truncated LRRK2 (Homo sapiens (Human), UniProt Q5S007); test: LRRK2 Lantha Screen kinase assay; format: biochemical; conditions: geometric mean of 2-5 determinations unless otherwise indicated (a: >=6 determinations; b: single determination); read-out: LRRK2 WT IC50
Chain of GST-tagged truncated LRRK2 (Q5S007 970-2527): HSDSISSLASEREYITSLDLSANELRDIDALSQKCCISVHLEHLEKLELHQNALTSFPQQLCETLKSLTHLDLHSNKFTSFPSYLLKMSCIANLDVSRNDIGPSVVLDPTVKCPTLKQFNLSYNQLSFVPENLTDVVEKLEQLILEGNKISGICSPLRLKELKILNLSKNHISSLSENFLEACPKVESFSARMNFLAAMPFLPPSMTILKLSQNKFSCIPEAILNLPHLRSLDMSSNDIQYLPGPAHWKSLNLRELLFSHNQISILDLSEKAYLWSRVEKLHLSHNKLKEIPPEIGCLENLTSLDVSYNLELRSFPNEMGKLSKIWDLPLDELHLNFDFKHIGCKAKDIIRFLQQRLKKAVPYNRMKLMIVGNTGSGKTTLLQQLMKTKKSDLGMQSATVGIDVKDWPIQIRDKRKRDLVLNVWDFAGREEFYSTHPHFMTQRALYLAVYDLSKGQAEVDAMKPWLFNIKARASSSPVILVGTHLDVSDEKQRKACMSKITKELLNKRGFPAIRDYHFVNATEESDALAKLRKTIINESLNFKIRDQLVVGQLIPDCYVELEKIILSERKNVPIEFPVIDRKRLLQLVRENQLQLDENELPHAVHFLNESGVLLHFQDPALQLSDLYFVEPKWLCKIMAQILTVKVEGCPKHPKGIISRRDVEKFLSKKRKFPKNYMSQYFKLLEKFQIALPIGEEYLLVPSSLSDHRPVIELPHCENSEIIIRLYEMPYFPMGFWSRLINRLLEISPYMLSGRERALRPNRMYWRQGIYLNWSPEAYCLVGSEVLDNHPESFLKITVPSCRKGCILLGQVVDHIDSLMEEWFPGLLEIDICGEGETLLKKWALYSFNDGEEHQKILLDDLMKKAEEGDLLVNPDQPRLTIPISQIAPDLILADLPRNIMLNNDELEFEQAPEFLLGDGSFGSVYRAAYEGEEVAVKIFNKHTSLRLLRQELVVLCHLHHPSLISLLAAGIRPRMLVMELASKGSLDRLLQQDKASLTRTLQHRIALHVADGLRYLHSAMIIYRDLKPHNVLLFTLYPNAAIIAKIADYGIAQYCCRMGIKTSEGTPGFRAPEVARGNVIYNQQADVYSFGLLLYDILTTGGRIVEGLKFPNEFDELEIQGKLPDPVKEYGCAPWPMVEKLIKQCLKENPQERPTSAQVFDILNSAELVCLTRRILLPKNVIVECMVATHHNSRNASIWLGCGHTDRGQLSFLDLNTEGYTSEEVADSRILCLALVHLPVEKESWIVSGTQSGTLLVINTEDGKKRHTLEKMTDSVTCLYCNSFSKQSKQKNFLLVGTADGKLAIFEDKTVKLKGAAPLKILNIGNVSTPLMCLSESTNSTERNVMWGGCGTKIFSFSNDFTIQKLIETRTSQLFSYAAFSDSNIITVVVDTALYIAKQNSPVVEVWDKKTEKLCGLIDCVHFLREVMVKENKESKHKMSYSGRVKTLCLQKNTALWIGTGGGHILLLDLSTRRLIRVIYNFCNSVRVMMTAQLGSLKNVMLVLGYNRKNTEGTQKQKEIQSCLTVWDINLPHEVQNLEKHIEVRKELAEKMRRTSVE

Chain of mutant G2019S LRRK2 (Q5S007 970-2527 G2019S): as the sequence (Q5S007 970-2527) above, with G1050S counted along it

Row | Structure (SMILES) | IC50 [1] [nM] | IC50 [2] [nM]
1 | CC1CCN(c2ncnc3[nH]cc(-c4cccc(C#N)c4)c23)CC1 [Example 62, 3-[4-(4-methylpiperidin-1-yl)-7H-pyrrolo[2,3-d]pyrimidin-5-yl]benzonitrile] | 273 | 91
2 | C[C@H]1CCCN(c2ncnc3[nH]cc(-c4cccc(C(=O)O)c4)c23)C1 [Example 63, 3-{4-[(3S)-3-methylpiperidin-1-yl]-7H-pyrrolo[2,3-d]pyrimidin-5-yl}benzoic acid] | 39 | 55
3 | CNc1ncnc2[nH]cc(-c3cccc(C#N)c3)c12 [Example 64, 3-[4-(methylamino)-7H-pyrrolo[2,3-d]pyrimidin-5-yl]benzonitrile] | 97 | 45
4 | COc1ccc(C#N)cc1-c1c[nH]c2ncnc(N3CCC[C@H](C)C3)c12 [Example 66, 4-methoxy-3-{4-[(3S)-3-methylpiperidin-1-yl]-7H-pyrrolo[2,3-d]pyrimidin-5-yl}benzonitrile] | 51 | 21
5 | C[C@H]1CCCN(c2ncnc3[nH]cc(-c4cccc(C#N)c4F)c23)C1 [Example 67, 2-fluoro-3-{4-[(3S)-3-methylpiperidin-1-yl]-7H-pyrrolo[2,3-d]pyrimidin-5-yl}benzonitrile] | 35 | 11
6 | CCN(CC)c1ncnc2[nH]cc(-c3cccc(C#N)c3)c12 [Example 73, 3-[4-(diethylamino)-7H-pyrrolo[2,3-d]pyrimidin-5-yl]benzonitrile] | 119 | 13
7 | N#Cc1cccc(-c2c[nH]c3ncnc(N4CCOCC4)c23)c1F [Example 78, 2-fluoro-3-[4-(morpholin-4-yl)-7H-pyrrolo[2,3-d]pyrimidin-5-yl]benzonitrile] | 7 | 2
8 | C[C@@H]1CN(c2ncnc3[nH]cc(-c4cccc(C#N)c4)c23)CCO1 [Example 79, 3-{4-[(2R)-2-methylmorpholin-4-yl]-7H-pyrrolo[2,3-d]pyrimidin-5-yl}benzonitrile] | 69 | 18
9 | N#Cc1ccccc1-c1c[nH]c2ncnc(N3CCOCC3)c12 [Example 82, 2-[4-(morpholin-4-yl)-7H-pyrrolo[2,3-d]pyrimidin-5-yl]benzonitrile] | 148 | 95
10 | Fc1ccccc1-c1c[nH]c2ncnc(N3CCOCC3)c12 [Example 84, 5-(2-fluorophenyl)-4-(morpholin-4-yl)-7H-pyrrolo[2,3-d]pyrimidine] | 30 | 22
11 | COc1cc(F)cc(-c2c[nH]c3ncnc(N4CCOCC4)c23)c1 [Example 85, 5-(3-fluoro-5-methoxyphenyl)-4-(morpholin-4-yl)-7H-pyrrolo[2,3-d]pyrimidine] | 20 | 9
12 | Fc1ccc(F)c(-c2c[nH]c3ncnc(N4CCOCC4)c23)c1 [Example 86, 5-(2,5-difluorophenyl)-4-(morpholin-4-yl)-7H-pyrrolo[2,3-d]pyrimidine] | 145 | 76
13 | c1ccc(-c2c[nH]c3ncnc(N4CCOCC4)c23)cc1 [Example 93, 4-(morpholin-4-yl)-5-phenyl-7H-pyrrolo[2,3-d]pyrimidine] | 14 | 9

Further compounds by falling IC50 [1], results first:

Row | IC50 [1] [nM] | IC50 [2] [nM] | Structure (SMILES)
14 | 396 | 53 | CN(C)c1ncnc2[nH]cc(-c3cc(F)cc(C#N)c3)c12 [Example 75, 3-[4-(dimethylamino)-7H-pyrrolo[2,3-d]pyrimidin-5-yl]-5-fluorobenzonitrile]
15 | 393 | 49 | N#Cc1ccc(F)c(-c2c[nH]c3ncnc(N4CCOCC4)c23)c1 [Example 80, 4-fluoro-3-[4-(morpholin-4-yl)-7H-pyrrolo[2,3-d]pyrimidin-5-yl]benzonitrile]
16 | 238 | 92 | Fc1cc(F)cc(-c2c[nH]c3ncnc(N4CCOCC4)c23)c1 [Example 92, 5-(3,5-difluorophenyl)-4-(morpholin-4-yl)-7H-pyrrolo[2,3-d]pyrimidine]
17 | 190 | 37 | CN(C)c1ncnc2[nH]cc(-c3cc(C#N)ccc3F)c12 [Example 72, 3-[4-(dimethylamino)-7H-pyrrolo[2,3-d]pyrimidin-5-yl]-4-fluorobenzonitrile]
18 | 176 | 85 | COc1ccc(C#N)cc1-c1c[nH]c2ncnc(N3C[C@H](C)C[C@H](C)C3)c12 [Example 65, 3-[4-(3,5-cis-dimethylpiperidin-1-yl)-7H-pyrrolo[2,3-d]pyrimidin-5-yl]-4-methoxybenzonitrile]
19 | 75 | 32 | OCc1cccc(-c2c[nH]c3ncnc(N4CCOCC4)c23)c1F [Example 89, {2-fluoro-3-[4-(morpholin-4-yl)-7H-pyrrolo[2,3-d]pyrimidin-5-yl]phenyl}methanol]
20 | 64 | 8 | N#Cc1cccc(-c2c[nH]c3ncnc(N4CCCC4)c23)c1 [Example 70, 3-[4-(pyrrolidin-1-yl)-7H-pyrrolo[2,3-d]pyrimidin-5-yl]benzonitrile]
21 | 62 | 41 | Fc1ccc(-c2c[nH]c3ncnc(N4CCOCC4)c23)c(F)c1 [Example 90, 5-(2,4-difluorophenyl)-4-(morpholin-4-yl)-7H-pyrrolo[2,3-d]pyrimidine]
22 | 50 | 36 | Cn1cc(-c2c[nH]c3ncnc(N4CCC(F)CC4)c23)cn1 [Example 81, 4-(4-fluoropiperidin-1-yl)-5-(1-methyl-1H-pyrazol-4-yl)-7H-pyrrolo[2,3-d]pyrimidine]
23 | 39 | 63 | CN(C)c1ncnc2[nH]cc(-c3ccccc3)c12 [Example 68, N,N-dimethyl-5-phenyl-7H-pyrrolo[2,3-d]pyrimidin-4-amine]
24 | 33 | 21 | Clc1ccccc1-c1c[nH]c2ncnc(N3CCOCC3)c12 [Example 95, 5-(2-chlorophenyl)-4-(morpholin-4-yl)-7H-pyrrolo[2,3-d]pyrimidine]
25 | 24 | 12 | Fc1cccc(-c2c[nH]c3ncnc(N4CCOCC4)c23)c1F [Example 87, 5-(2,3-difluorophenyl)-4-(morpholin-4-yl)-7H-pyrrolo[2,3-d]pyrimidine]
26 | 21 | 9 | Fc1cccc(-c2c[nH]c3ncnc(N4CCOCC4)c23)c1 [Example 91, 5-(3-fluorophenyl)-4-(morpholin-4-yl)-7H-pyrrolo[2,3-d]pyrimidine]
27 | 17 | 6 | CN(C)c1ncnc2[nH]cc(-c3cccc(C#N)c3F)c12 [Example 69, 3-[4-(dimethylamino)-7H-pyrrolo[2,3-d]pyrimidin-5-yl]-2-fluorobenzonitrile]
28 | 13 | 8 | Clc1cccc(-c2c[nH]c3ncnc(N4CCOCC4)c23)c1 [Example 83, 5-(3-chlorophenyl)-4-(morpholin-4-yl)-7H-pyrrolo[2,3-d]pyrimidine]
29 | 12 | 9 | Fc1ccc(Cl)cc1-c1c[nH]c2ncnc(N3CCOCC3)c12 [Example 88, 5-(5-chloro-2-fluorophenyl)-4-(morpholin-4-yl)-7H-pyrrolo[2,3-d]pyrimidine]
30 | 10 | 7 | COc1ccc(F)cc1-c1c[nH]c2ncnc(N3CCOCC3)c12 [Example 94, 5-(5-fluoro-2-methoxyphenyl)-4-(morpholin-4-yl)-7H-pyrrolo[2,3-d]pyrimidine]
